# From patent US20070111952A1, “Glycosylated triketide delta lactones” (priority 2003, published 2007)
# Columns and labels:
# [1] = tested on: A. azollae vegetative cells; assay: Azolla shoot apex bioassay: akinete differentiation of A. azollae / chlorosis of Azolla; format: cell-based, Anabaena azollae
# Description: Approximately 10 000 dried N. cornicina (36 g) were ground, suspended in 750 ml H2O, treated 60′ in a 100° C. water bath and centrifuged (14 000×g, 60′). The residue was re-suspended in 300 ml H2O, shacked 15′ and centrifuged (14 000×g, 60′). The two supernatants were grouped, filtered on Macherey-Nagel MN 615 paper and lyophilized. The dry residue (7 g) was suspended in 8 ml H2O, vortexed and centrifuged (7 800×g, 30′). Six ml of supernatant were filtered on acrodiscs 0.22 μm in four 1.5 ml batches, each filtrate being chromatographed on a 500 ml, 2.5 cm diameter Sephadex G 10 column (eluent: water; 3′/fraction, around 6 ml/fraction) The residue was suspended in 2 ml H2O, vortexed and centrifuged (7 800×g, 30′). Two ml of supernatant were filtered and chromatographed as above. This last procedure was repeated twice. Absorbance of each fraction was measured at 254 nm and bioassays were performed on 50 μl of each fraction from the seven chromatograms.
# Azolla is a small aquatic fern, which multiplies, most often vegetatively, at the surface of still water bodies, where it can form dense floating carpets. Anabaena azollae is the only known diazotrophic symbiont associated to a pteridophyte, Azolla and the only one linked to a plant throughout its life cycle. […]
# [2] = tested on: A. azollae vegetative cells; assay: Stability of the akinete-inducing activity (autoclaving, long storage); design: species or system Anabaena azollae
# Description: Extract of Nephrotoma cornicina (Linnaeus, 1758) (Tipulidae, Diptera) contains a glycosylated triketide lactone, here named cornicinine. The compound according to the invention is present in the head, thorax, abdomen, legs and wings of the insect, from both sexes.
# An Azolla shoot apex +/−3 mm long was excised and placed in a 2 ml Eppendorf tube filled with modified, N-free Hoagland solution to which was added the material to be tested. The culture was performed at 26° C. under constant light intensity of 110 μM. m^−2.sec^−1 and with daily adjustment of the liquid level with distilled water to compensate evapotranspiration. Activity was indicated by progressive chlorosis of Azolla, which appears after 5 days. Akinete differentiation can alternatively be followed by observation of leaf squashes under a light microscope, with first symptoms appearing after 48 hours of treatment.
substance,measurement,setting,value
cornicinine,concentration able to induce the differentiation of all the vegetative cells of A. azollae into akinetes,[1]; all vegetative cells into akinetes,nanomolar concentrations
same,activity on Azolla species,[1]; the seven generally recognised Azolla species,active
same,stability,[2],stable
